# Measurements reported in paper PMC10216478, “Development of a Non-Peptide Angiotensin II Type 1 Receptor Ligand by Structural Modification of Olmesartan as a Biased Agonist” (Biomedicines, 2023).
# Residue numbers refer to the chain shown, from its start.
# How the values were obtained:
# AT1 wild-type receptor [1] = molecular target: T1, AT1 wild-type receptor (Rattus norvegicus, UniProt P25095); experiment: IP production assay in COS7 cells expressing AT1 wild-type receptor; assay type: cell-based; details: AT1 wild-type receptor, COS7 cells; 1 µM ligands or 0.1 µM Ang II, 30 min; n = 5; vs. (-)
# T1 construct: expressed in transfected cells; host or cells: COS7
# T1 sequence (P25095 1-359): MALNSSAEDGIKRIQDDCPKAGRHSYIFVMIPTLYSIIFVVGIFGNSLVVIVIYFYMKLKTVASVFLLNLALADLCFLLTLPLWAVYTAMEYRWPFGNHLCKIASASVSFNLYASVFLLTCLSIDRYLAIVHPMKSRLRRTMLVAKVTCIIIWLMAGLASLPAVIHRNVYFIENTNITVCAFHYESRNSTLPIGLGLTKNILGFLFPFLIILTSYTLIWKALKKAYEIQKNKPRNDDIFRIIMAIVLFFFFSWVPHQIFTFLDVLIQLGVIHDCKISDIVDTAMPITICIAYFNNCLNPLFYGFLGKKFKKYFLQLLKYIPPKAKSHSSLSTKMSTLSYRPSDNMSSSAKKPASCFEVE
# Procedure: (§1) The synthetic rat AT1 receptor gene, which was cloned in the shuttle expression vector pMT-2, was used for expression and mutagenesis, as described previously. […] In the experiments, cells were grown without a cell-growth supplement. To express the AT1 receptor protein, 10 µg of purified plasmid DNA per 10^7 cells was used in the transfection. Wild-type and mutated AT1 receptors were transiently transfected into cells using Lipofectamine 2000 liposomal reagent (Roche Applied Science, Penzberg, Germany). Cells were plated and grown and were 70–90% confluent at the time of transfection. We incubated plasmid DNA (10 µg)–lipid (10 µL) complexes for 5 min at room temperature and added and incubated the complexes with cells for 24 h. We then analyzed the parameters in transfected cells. […] Transfected cells that had been cultured for 48–72 h were harvested. Cell membranes were prepared using the nitrogen Parr bomb disruption or freeze–thaw methods.
# (§2) Ligand (such as agonist or antagonist)-induced IP production through the AT1 receptor in transfected COS7 cells transiently expressing the AT1 receptor was measured to evaluate cell signaling as a second messenger for controlling blood pressure, since the increases in the intracellular Ca^2+ concentration were the result of IP accumulation, which indicated vasoconstriction. As a surrogate model with higher levels of AT1 receptor expression, COS7 cells are suitable for IP measurement because it is easy to detect differences in IP production. Cells were labeled for 24 h with [^3H]-myoinositol at 37 °C in DMEM containing 10% FBS. Next, the cells were washed with buffer 3 times and incubated with a medium containing 10 mM LiCl for 20 min; 0.1 µM Ang II or 1 µM ligands were added and incubation was continued for another 30 min at 37 °C. After incubation, the medium was removed, and total soluble IP was extracted from the cells using the perchloric acid extraction method, as described previously. Cells were plated at a field density of 5 × 10^3 cells/cm^2 in 60 mm dishes and cultured in a fresh growth medium at 37 °C in a DMEM 5% CO2 incubator. […] The culture medium was changed 48 h after transfection and 1.5 mL of 1 μCi/mL of [^3H]-myoinositol was added to each 60-mm dish at 37 °C in DMEM containing 10% FBS. After labeling, the cells were washed with buffer 3 times and incubated with a medium containing 10 mM LiCl for 20 min. The indicated concentration of ligands was added and incubation was continued for an additional 30 min at 37 °C. After incubation, the medium was removed, and total soluble IP was extracted from the cells using the perchloric acid extraction method. Total IP production was expressed as the sum of radioactivity, as described previously.
# AT1 L112A receptor [2] = molecular target: T2, AT1 L112A receptor (Rattus norvegicus, UniProt P25095, L112A); experiment: IP production assay in COS7 cells expressing AT1-L112A receptor; assay type: cell-based; details: 1 µM ligands or 0.1 µM Ang II, 30 min, n = 5, vs. (-)
# T2 construct: expressed in transfected cells; host or cells: COS7
# T2 sequence (P25095 1-359 L112A): T1 sequence (P25095 1-359) with L112A
# Procedure: as §1, §2
# AT1 Q257A receptor [3] = molecular target: T3, AT1 Q257A receptor (Rattus norvegicus, UniProt P25095, Q257A); experiment: IP production assay in COS7 cells expressing AT1-Q257A receptor; assay type: cell-based; details: 1 µM ligands or 0.1 µM Ang II, 30 min, n = 5, vs. (-)
# T3 construct: expressed in transfected cells; host or cells: COS7
# T3 sequence (P25095 1-359 Q257A): T1 sequence (P25095 1-359) with Q257A
# Procedure: as §1, §2
# AT1 wild-type receptor [4] = molecular target: T1, AT1 wild-type receptor; experiment: Immunoblotting of ERK 1/2 activation in COS7 cells overexpressing AT1 wild-type receptor; assay type: cell-based; details: AT1 wild-type receptor, COS7 cells; 1 µM ligands or 0.1 µM Ang II, 10 min; n = 5; vs. (-)
# Procedure: as §1
# (§3) In in vitro studies, ERK 1/2 activation by 1 µM ligands or 0.1 µM Ang II incubated for 10 min was measured using COS7 cells that overexpressed AT1 wild-type and mutant receptors. ERK activity was measured in cells maintained for 18 h in DMEM containing 0.1% serum. At the end of the stimulation, the culture medium was removed by aspiration, the cells were washed with ice-cold phosphate-buffered saline, and the dishes were frozen in liquid nitrogen. The cells were scraped using a scraper after melting, and the scraped cells were transferred to a tube. We homogenized the cells in lysis buffer plus protease inhibitors and determined the protein concentration using the bicinchoninic acid method. […] We fractionated total proteins using sodium dodecyl sulfate polyacrylamide gel electrophoresis; we then transferred the proteins to a Hybond nitrocellulose membrane and blocked the blotted membranes with 10% bovine serum albumin in tris-buffered saline buffer (50 mM Tris–HCl pH 7.6, 150 mM NaCl) for 1 h at room temperature. […] An enhanced chemiluminescent substrate system (Amersham, Buckinghamshire, UK) was used. The signal was independently quantified by digital image analysis (ImageJ, National Institutes of Health, Bethesda, MD, USA).
# AT1 L112A receptor [5] = molecular target: T2, AT1 L112A receptor; experiment: Immunoblotting of ERK 1/2 activation in COS7 cells overexpressing AT1-L112A receptor; assay type: cell-based; details: 1 µM ligands or 0.1 µM Ang II, 10 min, n = 5, vs. (-)
# Procedure: as §1, §3
# AT1 Q257A receptor [6] = molecular target: T3, AT1 Q257A receptor; experiment: Immunoblotting of ERK 1/2 activation in COS7 cells overexpressing AT1-Q257A receptor; assay type: cell-based; details: 1 µM ligands or 0.1 µM Ang II, 10 min, n = 5, vs. (-)
# Procedure: as §1, with “Cell membranes were prepared using the nitrogen Parr bomb disruption or freeze–thaw methods.” left out
# In in vitro studies, ERK 1/2 activation by 1 µM ligands or 0.1 µM Ang II incubated for 10 min was measured using COS7 cells that overexpressed AT1 wild-type and mutant receptors. ERK activity was measured in cells maintained for 18 h in DMEM containing 0.1% serum. […] We homogenized the cells in lysis buffer plus protease inhibitors and determined the protein concentration using the bicinchoninic acid method. […] The signal was independently quantified by digital image analysis (ImageJ, National Institutes of Health, Bethesda, MD, USA).
# AT1 wild-type receptor [7] = molecular target: T1, AT1 wild-type receptor; experiment: Competition binding study, 125I-[Sar1,Ile8]Ang II, AT1 wild-type receptor; details: competition with 125I-[Sar1,Ile8]Ang II, n = 3, mean ± standard error, read-out: Binding affinity (Kd)
# Procedure: (§4) The synthetic rat AT1 receptor gene, which was cloned in the shuttle expression vector pMT-2, was used for expression and mutagenesis, as described previously. COS7 cells (No. CRL-1651, ATCC, Manassas, VA, USA) were cultured in 10% fetal bovine serum (FBS) and penicillin- and streptomycin-supplemented Dulbecco’s modified Eagle’s essential medium (PS-DMEM) in 5% CO2 at 37 °C. In the experiments, cells were grown without a cell-growth supplement. To express the AT1 receptor protein, 10 µg of purified plasmid DNA per 10^7 cells was used in the transfection. […] We then analyzed the parameters in transfected cells. […]
# (§5) The Kd (nM) values of receptor binding were determined with ^125I-[Sar^1, Ile^8]AngII-binding experiments under equilibrium conditions. Binding kinetics were determined following the methods described in the literature. […] Ang II was determined in the presence of a high concentration (10^−6 M) of unlabeled [Sar^1, Ile^8]. […] The radioactivity trapped on the filters was quantified using an automatic γ-counter. The percentage (%) of specific binding of ^125I-[Sar^1, Ile^8]Ang II was calculated using the following formula: 100 × (% total binding of ^125I-[Sar^1, Ile^8]Ang II—nonspecific binding of ^125I-[Sar^1, Ile^8]Ang II)/(% total binding of ^125I-[Sar^1, Ile^8]Ang II).
# AT1 L112A receptor [8] = molecular target: T2, AT1 L112A receptor; experiment: Competition binding study, 125I-[Sar1,Ile8]Ang II, AT1 L112A receptor; details: competition with 125I-[Sar1,Ile8]Ang II, n = 3, mean ± standard error, read-out: Binding affinity (Kd)
# Source text: (§6) We mutated four amino acids in transmembrane (TM) III, VI, and VII in the AT1 receptor (L112A, Q257A, Y292A, and N295A receptors). We determined the mutation sites of the AT1 receptor according to ARB, which produced olmesartan derivatives with different interactions and functions toward the AT1 receptor, as previously reported by Zhang et al., since the additional 4-hydroxybenzyl groups of R781253 and R794847 were predicted to extend to a sub-pocket on the bottom of the AT1 receptor ligand-binding pocket consisting of Leu^112 and Gln^257. In addition, since the biased ligand TRV027 induced changes near the NPxxY motif in TM domain 7 that are related to receptor activation, Tyr^292 and Asn^295 in the AT1 receptor were mutated.
# as §4, §5
# AT1 Q257A receptor [9] = molecular target: T3, AT1 Q257A receptor; experiment: Competition binding study, 125I-[Sar1,Ile8]Ang II, AT1 Q257A receptor; details: competition with 125I-[Sar1,Ile8]Ang II, n = 3, mean ± standard error, read-out: Binding affinity (Kd)
# Source text: as §6
# (§7) The synthetic rat AT1 receptor gene, which was cloned in the shuttle expression vector pMT-2, was used for expression and mutagenesis, as described previously. COS7 cells (No. CRL-1651, ATCC, Manassas, VA, USA) were cultured in 10% fetal bovine serum (FBS) and penicillin- and streptomycin-supplemented Dulbecco’s modified Eagle’s essential medium (PS-DMEM) in 5% CO2 at 37 °C. In the experiments, cells were grown without a cell-growth supplement. To express the AT1 receptor protein, 10 µg of purified plasmid DNA per 10^7 cells was used in the transfection. Wild-type and mutated AT1 receptors were transiently transfected into cells using Lipofectamine 2000 liposomal reagent (Roche Applied Science, Penzberg, Germany). Cells were plated and grown and were 70–90% confluent at the time of transfection. We incubated plasmid DNA (10 µg)–lipid (10 µL) complexes for 5 min at room temperature and added and incubated the complexes with cells for 24 h. We then analyzed the parameters in transfected cells. Cell viability was >95% according to trypan blue exclusion analysis in the control experiments. Transfected cells that had been cultured for 48–72 h were harvested. Cell membranes were prepared using the nitrogen Parr bomb disruption or freeze–thaw methods.
# (§8) The Kd (nM) values of receptor binding were determined with ^125I-[Sar^1, Ile^8]AngII-binding experiments under equilibrium conditions. Binding kinetics were determined following the methods described in the literature. We carried out binding by using ^125I-[Sar^1, Ile^8] AngII (2200 Ci/mmol) and an increasing concentration (10^−11–10^−5 M) of each unlabeled compound. Nonspecific binding of ^125I-[Sar^1, Ile^8] Ang II was determined in the presence of a high concentration (10^−6 M) of unlabeled [Sar^1, Ile^8]. Next, the incubation mixture was separated by vacuum filtration through Whatman GF/C glass filters (Disposable Filter Funnels Grade GF/C, GE Healthcare), and presoaked with 0.1% polyethylenimine. The filter was washed with 3 mL of ice-cold stop buffer (25 mM Tris–HCl, pH 7.4, 1 mM MgCl2). The radioactivity trapped on the filters was quantified using an automatic γ-counter. The percentage (%) of specific binding of ^125I-[Sar^1, Ile^8]Ang II was calculated using the following formula: 100 × (% total binding of ^125I-[Sar^1, Ile^8]Ang II—nonspecific binding of ^125I-[Sar^1, Ile^8]Ang II)/(% total binding of ^125I-[Sar^1, Ile^8]Ang II).
# AT1 Y292A receptor = molecular target: T4, AT1 Y292A receptor (Rattus norvegicus, UniProt P25095, Y292A); experiment: Competition binding study, 125I-[Sar1,Ile8]Ang II, AT1 Y292A receptor; details: competition with 125I-[Sar1,Ile8]Ang II, n = 3, mean ± standard error, read-out: Binding affinity (Kd)
# T4 construct: expressed in transfected cells; host or cells: COS7
# T4 sequence (P25095 1-359 Y292A): T1 sequence (P25095 1-359) with Y292A
# Source text: as §6, §7, §8
# AT1 N295A receptor = molecular target: T5, AT1 N295A receptor (Rattus norvegicus, UniProt P25095, N295A); experiment: Competition binding study, 125I-[Sar1,Ile8]Ang II, AT1 N295A receptor; details: competition with 125I-[Sar1,Ile8]Ang II, n = 3, mean ± standard error, read-out: Binding affinity (Kd)
# T5 construct: expressed in transfected cells; host or cells: COS7
# T5 sequence (P25095 1-359 N295A): T1 sequence (P25095 1-359) with N295A
# Source text: as §6, §7, §8
Effect on IP production (AT1 wild-type receptor [1]),Effect on IP production (AT1 L112A receptor [2]),Effect on IP production (AT1 Q257A receptor [3]),ERK1/2 activation (AT1 wild-type receptor [4]),ERK1/2 activation (AT1 L112A receptor [5]),ERK1/2 activation (AT1 Q257A receptor [6]),Kd (AT1 wild-type receptor [7]),Kd (AT1 L112A receptor [8]),Kd (AT1 Q257A receptor [9]),Kd (AT1 Y292A receptor),Kd (AT1 N295A receptor),Molecule
significantly increased IP production,significantly increased IP production,significantly increased IP production,significantly activated ERK1/2,significantly activated ERK1/2,significantly activated ERK1/2,–,–,–,–,–,"angiotensin II [Ang II, reference compound]"
–,–,–,–,–,–,0.8 ± 0.4 nM,1.3 ± 0.3 nM,3.3 ± 1.5 nM,2.1 ± 0.9 nM,7 ± 2 nM,"CC[C@H](C)[C@H](NC(=O)[C@@H]1CCCN1C(=O)[C@H](Cc1c[nH]cn1)NC(=O)[C@@H](NC(=O)[C@H](Cc1ccc(O)cc1)NC(=O)[C@@H](NC(=O)[C@H](CCCN=C(N)N)NC(=O)CNC)C(C)C)[C@@H](C)CC)C(=O)O [[Sar^1,Ile^8]Ang II, [Sar^1, Ile^8]Ang II, reference compound]"
